SMILES strings stand for the structures.

The target in the test is c-kit WT (Homo sapiens (Human), UniProt P10721). Kind of test: Proliferation assay (CellTiter-Blue) on BaF3 Kit WT cell line. In kind it is cell-based. Particulars: BaF3 Kit WT cell line (murine Ba/F3 expressing Human Kit WT, with murine SCF), 48 hours. The method in brief:
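Ba/F3 cells expressing human Kit WT, maintained in RPMI/10% FCS with 250 ng/ml murine SCF, were seeded at 2.10^4 cells/well and exposed to ½ serial dilutions (0–10 μM) for 48 h at 37° C. Viability was measured by CellTiter-Blue fluorescence (544Ex/590Em, 4 h) in triplicate as % of untreated proliferation.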

Chain of c-kit WT (P10721 26-976): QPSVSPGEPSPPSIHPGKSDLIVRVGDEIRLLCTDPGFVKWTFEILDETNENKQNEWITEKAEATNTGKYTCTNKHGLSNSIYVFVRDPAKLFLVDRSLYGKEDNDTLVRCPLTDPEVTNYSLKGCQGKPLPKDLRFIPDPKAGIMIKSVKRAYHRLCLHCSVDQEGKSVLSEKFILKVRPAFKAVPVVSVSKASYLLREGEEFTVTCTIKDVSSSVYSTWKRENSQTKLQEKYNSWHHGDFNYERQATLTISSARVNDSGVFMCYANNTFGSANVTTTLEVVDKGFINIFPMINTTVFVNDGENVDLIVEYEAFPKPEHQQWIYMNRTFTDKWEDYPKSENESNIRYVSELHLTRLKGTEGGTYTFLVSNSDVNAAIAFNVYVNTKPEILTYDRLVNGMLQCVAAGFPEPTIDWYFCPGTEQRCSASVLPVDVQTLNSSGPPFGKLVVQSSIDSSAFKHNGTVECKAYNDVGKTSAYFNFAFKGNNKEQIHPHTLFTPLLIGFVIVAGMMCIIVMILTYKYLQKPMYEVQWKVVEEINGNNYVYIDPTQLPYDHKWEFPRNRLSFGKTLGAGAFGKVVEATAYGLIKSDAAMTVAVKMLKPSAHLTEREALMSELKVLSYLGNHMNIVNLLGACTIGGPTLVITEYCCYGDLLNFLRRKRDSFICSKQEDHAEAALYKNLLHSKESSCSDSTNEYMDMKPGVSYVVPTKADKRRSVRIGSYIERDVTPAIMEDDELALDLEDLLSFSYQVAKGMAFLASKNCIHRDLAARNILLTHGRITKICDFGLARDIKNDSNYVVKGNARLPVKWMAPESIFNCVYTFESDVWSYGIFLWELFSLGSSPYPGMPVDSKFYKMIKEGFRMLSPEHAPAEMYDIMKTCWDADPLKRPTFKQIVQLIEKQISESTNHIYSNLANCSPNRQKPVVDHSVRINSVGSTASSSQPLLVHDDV

The term IC50 denotes the concentration needed to halve the response being measured. In the case of `COc1cccc(-c2nc3cc(Nc4nc(-c5cccnc5)cs4)c(C)cc3[nH]2)c1` [Compound 126, [2-(3-Methoxy-phenyl)-6-methyl-1H-benzoimidazol-5-yl]-(4-pyridin-3-yl-thiazol-2-yl)-amine], the IC50 is ≤ 1 µM. The same measure for `Cc1cc2nc(-c3cccc(C(F)F)c3)[nH]c2cc1Nc1nc(-c2cccc(C#N)c2)cs1` [Compound 127, 3-{2-[2-(3-Difluoromethyl-phenyl)-6-methyl-3H-benzoimidazol-5-ylamino]-thiazol-4-yl}-benzonitrile]: ≤ 1 µM; for `COc1cccc(-c2nc3cc(Nc4nc(-c5ccc(C#N)cc5)cs4)c(C)cc3[nH]2)c1` [Compound 128, 4-{2-[2-(3-Methoxy-phenyl)-6-methyl-1H-benzoimidazol-5-ylamino]-thiazol-4-yl}-benzonitrile]: ≤ 1 µM; for `Cc1cccc(-c2nc3cc(Nc4nc(-c5cccc(C#N)c5)cs4)c(C)cc3[nH]2)c1` [Compound 129, 3-[2-(6-Methyl-2-m-tolyl-1H-benzoimidazol-5-ylamino)-thiazol-4-yl]-benzonitrile]: ≤ 1 µM. Consider `Cc1cc2[nH]c(-c3cccc(C(F)(F)F)c3)nc2cc1Nc1nc(-c2cccc(C#N)c2)cs1` [Compound 130, 3-{2-[6-Methyl-2-(3-trifluoromethyl-phenyl)-1H-benzoimidazol-5-ylamino]-thiazol-4-yl}-benzonitrile], for which the IC50 is ≤ 1 µM. The same measure for `Cc1cc2[nH]c(-c3cccc(S(C)(=O)=O)c3)nc2cc1Nc1nc(-c2ccc(C#N)cc2)cs1` [Compound 131, 4-{2-[2-(3-Methanesulfonyl-phenyl)-6-methyl-1H-benzoimidazol-5-ylamino]-thiazol-4-yl}-benzonitrile]: ≤ 1 µM.

Take `Cc1cc2nc(-c3cccc(N(C)C)c3)[nH]c2cc1Nc1nc(-c2cccnc2)cs1` [Compound 132, [2-(3-Dimethylamino-phenyl)-6-methyl-3H-benzoimidazol-5-yl]-(4-pyridin-3-yl-thiazol-2-yl)-amine]: the IC50 is ≤ 1 µM.

Consider `Cc1cc2c(cc1Nc1nc(-c3ccncc3)cs1)nc(-c1cccc(N(C)C)c1)n2C` [Compound 133], for which the IC50 was ≤ 1 µM. The same measure for `CCS(=O)(=O)Nc1cccc(-c2nc3cc(Nc4nc(-c5ccncc5)cs4)c(C)cc3n2C)c1` [Compound 134, Ethanesulfonic acid {3-[1,6-dimethyl-5-(4-pyridin-4-yl-thiazol-2-ylamino)-1H-benzoimidazol-2-yl]-phenyl}-amide]: 1 to 10 µM. The same measure for `C=CS(=O)(=O)Nc1cccc(-c2nc3cc(Nc4nc(-c5ccncc5)cs4)c(C)cc3n2C)c1` [Compound 135, Ethenesulfonic acid {3-[1,6-dimethyl-5-(4-pyridin-4-yl-thiazol-2-ylamino)-1H-benzoimidazol-2-yl]-phenyl}-amide]: 1 to 10 µM; for `Cc1cc2[nH]c(-c3cccc(C(C)C)c3)nc2cc1Nc1nc(-c2cccnc2)cs1` [Compound 136, [2-(3-Isopropyl-phenyl)-6-methyl-1H-benzoimidazol-5-yl]-(4-pyridin-3-yl-thiazol-2-yl)-amine]: ≤ 1 µM. The same measure for `Cc1cc2[nH]c(-c3cccc(C(C)(C)C)c3)nc2cc1Nc1nc(-c2cccnc2)cs1` [Compound 137, [2-(3-tert-Butyl-phenyl)-6-methyl-1H-benzoimidazol-5-yl]-(4-pyridin-3-yl-thiazol-2-yl)-amine]: ≤ 1 µM. In the case of `Cc1cc2c(cc1Nc1nc(-c3ccc(C#N)cc3)cs1)nc(-c1cc(F)cc(C(F)(F)F)c1)n2C` [Compound 138, 4-{2-[2-(3-Fluoro-5-trifluoromethyl-phenyl)-1,6-dimethyl-1H-benzoimidazol-5-ylamino]-thiazol-4-yl}-benzonitrile], the half-inhibitory concentration (IC50) was ≤ 1 µM. Turning to `C#Cc1cccc(-c2nc3cc(Nc4nc(-c5cccnc5)cs4)c(C)cc3[nH]2)c1` [Compound 139, [2-(3-Ethynyl-phenyl)-6-methyl-1H-benzoimidazol-5-yl]-(4-pyridin-3-yl-thiazol-2-yl)-amine], the IC50 is ≤ 1 µM. On to `Cc1cc2c(cc1Nc1nc(-c3cccnc3)cs1)nc(-c1cccc(C(C)C)c1)n2C` [Compound 140, [2-(3-Isopropyl-phenyl)-1,6-dimethyl-1H-benzoimidazol-5-yl]-(4-pyridin-3-yl-thiazol-2-yl)-amine], for which the IC50 was ≤ 1 µM.

Regarding `C#Cc1cccc(-c2nc3cc(Nc4nc(-c5ccc(C#N)cc5)cs4)c(C)cc3[nH]2)c1` [Compound 141, 4-{2-[2-(3-Ethynyl-phenyl)-6-methyl-1H-benzoimidazol-5-ylamino]-thiazol-4-yl}-benzonitrile], the IC50 was ≤ 1 µM. The same measure for `Cc1cc2c(cc1Nc1nc(-c3ccc(C#N)cc3)cs1)nc(-c1cccc(C(C)C)c1)n2C` [Compound 142, 4-{2-[2-(3-Isopropyl-phenyl)-1,6-dimethyl-1H-benzoimidazol-5-ylamino]-thiazol-4-yl}-benzonitrile]: ≤ 1 µM; for `Cc1cc2[nH]c(-c3cccc(C(C)C)c3)nc2cc1Nc1nc(-c2ccc(C#N)cc2)cs1` [Compound 143, 4-{2-[2-(3-Isopropyl-phenyl)-6-methyl-1H-benzoimidazol-5-ylamino]-thiazol-4-yl}-benzonitrile]: ≤ 1 µM.

As for `Cc1cc2c(cc1Nc1nc(-c3ccc(C#N)cc3)cs1)nc(-c1cccc(C(C)(C)C)c1)n2C` [Compound 144, 4-{2-[2-(3-tert-Butyl-phenyl)-1,6-dimethyl-1H-benzoimidazol-5-ylamino]-thiazol-4-yl}-benzonitrile], the IC50 is ≤ 1 µM. Take `Cc1cc2c(cc1Nc1nc(-c3cccnc3)cs1)nc(-c1cccc(C(C)(C)C)c1)n2C` [Compound 145, [2-(3-tert-Butyl-phenyl)-1,6-dimethyl-1H-benzoimidazol-5-yl]-(4-pyridin-3-yl-thiazol-2-yl)-amine]: the IC50 was ≤ 1 µM. With `C#Cc1cccc(-c2nc3cc(Nc4nc(-c5cccnc5)cs4)c(C)cc3n2C)c1` [Compound 146, [2-(3-Ethynyl-phenyl)-1,6-dimethyl-1H-benzoimidazol-5-yl]-(4-pyridin-3-yl-thiazol-2-yl)-amine] the figure was ≤ 1 µM. With `Cc1cc2c(cc1Nc1nc(-c3ccncc3)cs1)nc(-c1cc(F)cc(C(F)(F)F)c1)n2C` [Compound 147, [2-(3-Fluoro-5-trifluoromethyl-phenyl)-1,6-dimethyl-1H-benzoimidazol-5-yl]-(4-pyridin-4-yl-thiazol-2-yl)-amine] the figure was ≤ 1 µM. For `Cc1cc2c(cc1Nc1nc(-c3cccnc3)cs1)nc(-c1cc(F)cc(C(F)(F)F)c1)n2C` [Compound 148, [2-(3-Fluoro-5-trifluoromethyl-phenyl)-1,6-dimethyl-1H-benzoimidazol-5-yl]-(4-pyridin-3-yl-thiazol-2-yl)-amine], the IC50 is ≤ 1 µM. With `Cc1cc2[nH]c(-c3cc(F)cc(C(F)(F)F)c3)nc2cc1Nc1nc(-c2ccncc2)cs1` [Compound 149, [2-(3-Fluoro-5-trifluoromethyl-phenyl)-6-methyl-1H-benzoimidazol-5-yl]-(4-pyridin-4-yl-thiazol-2-yl)-amine], the IC50 is ≤ 1 µM. With `Cc1cc2[nH]c(-c3cccc(C(C)C)c3)nc2cc1Nc1nc(-c2ccncc2)cs1` [Compound 150, [2-(3-Isopropyl-phenyl)-6-methyl-1H-benzoimidazol-5-yl]-(4-pyridin-4-yl-thiazol-2-yl)-amine] the figure was ≤ 1 µM.

The values are drawn from patent publication US10202370B2, “Benzimidazole derivatives as selective proteine kinase inhibitors” (AB SCIENCE, priority 2013, dated 2019).
